Tests used:
[1] = biological target: Phosphatidylinositol 5-phosphate 4-kinase type-2 beta (Homo sapiens) (UniProt P78356); settings: Compound concentration 1000.0 nM
[2] = biological target: Dual specificity mitogen-activated protein kinase kinase 4 (Homo sapiens) (UniProt P45985); settings: Compound concentration 1000.0 nM
[3] = tested on: Leucine-rich repeat serine/threonine-protein kinase 2 (Homo sapiens), Q5S007 [G2019S]; settings: Compound concentration 1000.0 nM
[4] = biological target: Serine/threonine-protein kinase pim-3 (Homo sapiens) (UniProt Q86V86); settings: Compound concentration 1000.0 nM
[5] = biological target: LIM domain kinase 2 (Homo sapiens) (UniProt P53671); settings: Compound concentration 1000.0 nM
[6] = biological target: Bcl-2-like protein 1 (Homo sapiens, UniProt Q07817); assay: Time-resolved fluorescence energy transfer (TR-FRET) with BCL2L1
[7] = biological target: P2X receptor (Rattus norvegicus) (UniProt P51579+P49653+P51578+Q64663+P47824+P51577+P49654); assay: P2X Eurofins-Cerep binding assay; type: protein assay; parameters: ligand concentration 3 nM; settings: filed as agonist, Compound concentration 10.0 uM
[8] = tested on: Phosphatidylinositol 4,5-bisphosphate 3-kinase catalytic subunit alpha isoform (Homo sapiens), P42336 [E545K]; settings: Compound concentration 1000.0 nM
[9] = biological target: Leukocyte tyrosine kinase receptor (Homo sapiens) (UniProt P29376); settings: Compound concentration 1000.0 nM
[10] = biological target: Beta-1 adrenergic receptor (Homo sapiens) (UniProt P08588); assay: Beta1 (h) Eurofins-Cerep binding assay; parameters: ligand concentration 0.3 nM; settings: filed as agonist, Compound concentration 10.0 uM
[11] = biological target: Mu-type opioid receptor (Homo sapiens) (UniProt P35372); assay: mu (MOP) (h) Eurofins-Cerep binding assay; parameters: ligand concentration 0.5 nM; settings: filed as agonist, Compound concentration 10.0 uM
[12] = biological target: Tyrosine-protein kinase receptor TYRO3 (Homo sapiens) (UniProt Q06418); settings: Compound concentration 1000.0 nM
[13] = biological target: T1, 5-hydroxytryptamine receptor 2C (Homo sapiens) (UniProt P28335); settings: Compound concentration 10.0 uM
T1 sequence (whole entry): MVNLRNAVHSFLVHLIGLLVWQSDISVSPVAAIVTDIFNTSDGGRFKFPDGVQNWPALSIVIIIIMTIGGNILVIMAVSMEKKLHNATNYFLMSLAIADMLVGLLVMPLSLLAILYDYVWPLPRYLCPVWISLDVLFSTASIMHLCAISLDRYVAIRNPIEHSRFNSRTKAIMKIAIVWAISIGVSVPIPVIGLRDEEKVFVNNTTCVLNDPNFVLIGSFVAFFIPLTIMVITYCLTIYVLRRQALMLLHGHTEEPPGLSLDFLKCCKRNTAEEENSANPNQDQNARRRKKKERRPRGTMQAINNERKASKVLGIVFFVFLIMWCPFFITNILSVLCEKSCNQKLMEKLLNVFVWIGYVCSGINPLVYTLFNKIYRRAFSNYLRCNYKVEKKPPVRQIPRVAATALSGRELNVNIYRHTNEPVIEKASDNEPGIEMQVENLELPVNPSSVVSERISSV

[14] = biological target: Calcitonin-gene-related peptide receptor, CALCRL/RAMP1 (Homo sapiens) (UniProt O60894+Q16602); assay: CGRP (h) Eurofins-Cerep binding assay; type: protein-complex assay; parameters: ligand concentration 0.03 nM; settings: filed as agonist, Compound concentration 10.0 uM
[15] = biological target: Sodium-dependent serotonin transporter (Homo sapiens) (UniProt P31645); settings: Compound concentration 10.0 uM
[16] = biological target: MAO-B (amine oxidase [flavin-containing] B) (Homo sapiens, UniProt P27338); assay: MAO-B (h) recombinant enzyme Eurofins-Cerep enzyme and uptake assay; parameters: incubation time 60 min, incubation temperature 37°C, substrate/stimulus/tracer D-Luciferin derivative (4 µM); settings: probe D-Luciferin derivative (4 µM), compound concentration 10 uM, read-out: % Inhibition of Control Values (Mean n=2)
[17] = biological target: Phosphatidylinositol 3-kinase C2 domain-containing subunit gamma (Homo sapiens) (UniProt O75747); settings: Compound concentration 1000.0 nM
Chain of Phosphatidylinositol 3-kinase C2 domain-containing subunit gamma (Homo sapiens) (O75747 whole entry, the tested form may be a part): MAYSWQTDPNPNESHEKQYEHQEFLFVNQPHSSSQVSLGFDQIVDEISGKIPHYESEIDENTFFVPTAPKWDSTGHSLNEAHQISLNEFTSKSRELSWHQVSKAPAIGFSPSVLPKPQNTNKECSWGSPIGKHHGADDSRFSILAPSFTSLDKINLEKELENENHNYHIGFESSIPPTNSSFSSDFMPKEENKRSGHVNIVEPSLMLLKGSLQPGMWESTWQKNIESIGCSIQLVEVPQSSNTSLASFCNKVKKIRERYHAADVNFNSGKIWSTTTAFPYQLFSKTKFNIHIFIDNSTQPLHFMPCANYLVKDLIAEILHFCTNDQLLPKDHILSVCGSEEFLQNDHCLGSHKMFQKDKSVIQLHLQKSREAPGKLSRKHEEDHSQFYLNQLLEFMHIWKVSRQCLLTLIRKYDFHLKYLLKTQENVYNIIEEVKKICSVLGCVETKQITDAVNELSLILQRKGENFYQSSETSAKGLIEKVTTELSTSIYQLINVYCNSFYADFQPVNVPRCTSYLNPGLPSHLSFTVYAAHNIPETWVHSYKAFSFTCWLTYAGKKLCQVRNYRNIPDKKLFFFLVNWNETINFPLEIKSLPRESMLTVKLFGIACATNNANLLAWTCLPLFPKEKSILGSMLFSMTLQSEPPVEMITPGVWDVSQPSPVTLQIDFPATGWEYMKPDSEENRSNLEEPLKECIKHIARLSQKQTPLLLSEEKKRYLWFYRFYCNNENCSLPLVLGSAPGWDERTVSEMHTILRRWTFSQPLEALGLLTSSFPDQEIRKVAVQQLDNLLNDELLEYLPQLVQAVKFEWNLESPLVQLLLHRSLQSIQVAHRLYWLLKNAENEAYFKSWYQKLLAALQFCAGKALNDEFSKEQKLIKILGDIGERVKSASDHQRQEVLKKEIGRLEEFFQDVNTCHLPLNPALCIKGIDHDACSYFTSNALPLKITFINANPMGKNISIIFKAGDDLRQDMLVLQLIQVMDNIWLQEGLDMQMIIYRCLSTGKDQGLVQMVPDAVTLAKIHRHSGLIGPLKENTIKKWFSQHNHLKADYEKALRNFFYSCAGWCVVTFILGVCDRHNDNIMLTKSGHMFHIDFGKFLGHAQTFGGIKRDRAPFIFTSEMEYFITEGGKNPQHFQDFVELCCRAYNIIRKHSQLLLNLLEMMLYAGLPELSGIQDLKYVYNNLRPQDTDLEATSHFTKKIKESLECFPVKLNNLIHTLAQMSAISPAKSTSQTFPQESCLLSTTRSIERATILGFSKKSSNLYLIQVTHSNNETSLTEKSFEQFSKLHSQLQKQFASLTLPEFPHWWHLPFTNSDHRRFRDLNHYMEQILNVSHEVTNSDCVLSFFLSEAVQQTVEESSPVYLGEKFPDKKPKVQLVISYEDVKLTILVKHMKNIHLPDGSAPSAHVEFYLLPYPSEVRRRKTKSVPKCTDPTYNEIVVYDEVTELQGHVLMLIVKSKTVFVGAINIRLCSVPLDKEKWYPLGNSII

[18] = biological target: cAMP-dependent protein kinase catalytic subunit alpha (Homo sapiens) (UniProt P17612); settings: Compound concentration 1000.0 nM
[19] = biological target: Ribosomal protein S6 kinase alpha-4 (Homo sapiens) (UniProt O75676); settings: Compound concentration 1000.0 nM
[20] = biological target: Serine/threonine-protein kinase Nek6 (Homo sapiens) (UniProt Q9HC98); settings: Compound concentration 1000.0 nM
Chain of Serine/threonine-protein kinase Nek6 (Homo sapiens) (Q9HC98 whole entry): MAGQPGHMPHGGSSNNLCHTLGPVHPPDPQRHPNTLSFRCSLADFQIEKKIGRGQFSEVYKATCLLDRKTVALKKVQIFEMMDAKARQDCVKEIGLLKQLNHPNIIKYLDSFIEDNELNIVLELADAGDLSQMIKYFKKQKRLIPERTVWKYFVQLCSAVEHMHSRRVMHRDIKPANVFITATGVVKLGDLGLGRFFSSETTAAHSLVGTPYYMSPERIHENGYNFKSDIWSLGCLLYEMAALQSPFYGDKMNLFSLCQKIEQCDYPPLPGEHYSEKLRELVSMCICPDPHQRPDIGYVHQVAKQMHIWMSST

[21] = biological target: Serine/threonine-protein kinase PAK 2 (Homo sapiens) (UniProt Q13177); settings: Compound concentration 1000.0 nM
[22] = biological target: Phosphatidylinositol 4,5-bisphosphate 3-kinase catalytic subunit delta isoform (Homo sapiens) (UniProt O00329); settings: Compound concentration 1000.0 nM
[23] = biological target: Myosin light chain kinase 2, skeletal/cardiac muscle (Homo sapiens) (UniProt Q9H1R3); settings: Compound concentration 1000.0 nM
Chain of Myosin light chain kinase 2, skeletal/cardiac muscle (Homo sapiens) (Q9H1R3 whole entry): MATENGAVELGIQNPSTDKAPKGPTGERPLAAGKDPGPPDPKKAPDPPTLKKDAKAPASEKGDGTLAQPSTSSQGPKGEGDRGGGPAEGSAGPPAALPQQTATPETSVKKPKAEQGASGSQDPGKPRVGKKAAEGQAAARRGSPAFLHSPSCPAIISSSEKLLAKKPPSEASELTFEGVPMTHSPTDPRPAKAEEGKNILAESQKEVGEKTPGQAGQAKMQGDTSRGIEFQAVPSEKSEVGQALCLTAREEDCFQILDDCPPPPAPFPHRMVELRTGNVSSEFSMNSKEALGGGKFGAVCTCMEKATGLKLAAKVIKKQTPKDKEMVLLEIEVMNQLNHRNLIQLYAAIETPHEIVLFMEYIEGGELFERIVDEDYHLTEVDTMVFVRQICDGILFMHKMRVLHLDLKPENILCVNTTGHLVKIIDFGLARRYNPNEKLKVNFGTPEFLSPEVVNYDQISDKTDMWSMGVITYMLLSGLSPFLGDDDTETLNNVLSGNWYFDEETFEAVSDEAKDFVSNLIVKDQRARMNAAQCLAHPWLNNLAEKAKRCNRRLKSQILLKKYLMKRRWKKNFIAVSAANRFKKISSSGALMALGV

[24] = biological target: BDNF/NT-3 growth factors receptor (Homo sapiens) (UniProt Q16620); settings: Compound concentration 1000.0 nM
[25] = biological target: Serine/threonine-protein kinase 38-like (Homo sapiens) (UniProt Q9Y2H1); settings: Compound concentration 1000.0 nM
[26] = biological target: Dual specificity protein kinase CLK1 (Homo sapiens) (UniProt P49759); settings: Compound concentration 1000.0 nM
[27] = biological target: Serine/threonine-protein kinase RIO2 (Homo sapiens) (UniProt Q9BVS4); settings: Compound concentration 1000.0 nM
[28] = biological target: Citron Rho-interacting kinase (Homo sapiens) (UniProt O14578); settings: Compound concentration 1000.0 nM
[29] = biological target: Cyclin-dependent kinase 3 (Homo sapiens) (UniProt Q00526); settings: Compound concentration 1000.0 nM
[30] = biological target: Serine/threonine-protein kinase VRK2 (Homo sapiens) (UniProt Q86Y07); settings: Compound concentration 1000.0 nM
[31] = biological target: Maternal embryonic leucine zipper kinase (Homo sapiens) (UniProt Q14680); settings: Compound concentration 1000.0 nM
[32] = biological target: Tyrosine-protein kinase ABL2 (Homo sapiens) (UniProt P42684); settings: Compound concentration 1000.0 nM
[33] = biological target: Serine/threonine-protein kinase DCLK1 (Homo sapiens) (UniProt O15075); settings: Compound concentration 1000.0 nM
[34] = biological target: Cyclin-dependent kinase 7 (Homo sapiens) (UniProt P50613); settings: Compound concentration 1000.0 nM
Chain of Cyclin-dependent kinase 7 (Homo sapiens) (P50613 whole entry): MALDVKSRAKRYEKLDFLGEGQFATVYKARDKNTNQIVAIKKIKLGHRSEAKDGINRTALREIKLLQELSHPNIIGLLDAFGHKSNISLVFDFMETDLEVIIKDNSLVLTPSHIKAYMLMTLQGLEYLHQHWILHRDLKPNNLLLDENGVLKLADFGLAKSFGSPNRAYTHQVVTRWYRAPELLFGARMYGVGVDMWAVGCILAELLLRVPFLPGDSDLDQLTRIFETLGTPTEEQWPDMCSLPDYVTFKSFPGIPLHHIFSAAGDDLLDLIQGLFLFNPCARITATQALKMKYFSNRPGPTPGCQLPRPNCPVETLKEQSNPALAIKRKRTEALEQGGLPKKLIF

[35] = biological target: Casein kinase II subunit alpha' (Homo sapiens) (UniProt P19784); settings: Compound concentration 1000.0 nM
[36] = biological target: Receptor-interacting serine/threonine-protein kinase 1 (Homo sapiens) (UniProt Q13546); settings: Compound concentration 1000.0 nM
Chain of Receptor-interacting serine/threonine-protein kinase 1 (Homo sapiens) (Q13546 whole entry, canonical isoform): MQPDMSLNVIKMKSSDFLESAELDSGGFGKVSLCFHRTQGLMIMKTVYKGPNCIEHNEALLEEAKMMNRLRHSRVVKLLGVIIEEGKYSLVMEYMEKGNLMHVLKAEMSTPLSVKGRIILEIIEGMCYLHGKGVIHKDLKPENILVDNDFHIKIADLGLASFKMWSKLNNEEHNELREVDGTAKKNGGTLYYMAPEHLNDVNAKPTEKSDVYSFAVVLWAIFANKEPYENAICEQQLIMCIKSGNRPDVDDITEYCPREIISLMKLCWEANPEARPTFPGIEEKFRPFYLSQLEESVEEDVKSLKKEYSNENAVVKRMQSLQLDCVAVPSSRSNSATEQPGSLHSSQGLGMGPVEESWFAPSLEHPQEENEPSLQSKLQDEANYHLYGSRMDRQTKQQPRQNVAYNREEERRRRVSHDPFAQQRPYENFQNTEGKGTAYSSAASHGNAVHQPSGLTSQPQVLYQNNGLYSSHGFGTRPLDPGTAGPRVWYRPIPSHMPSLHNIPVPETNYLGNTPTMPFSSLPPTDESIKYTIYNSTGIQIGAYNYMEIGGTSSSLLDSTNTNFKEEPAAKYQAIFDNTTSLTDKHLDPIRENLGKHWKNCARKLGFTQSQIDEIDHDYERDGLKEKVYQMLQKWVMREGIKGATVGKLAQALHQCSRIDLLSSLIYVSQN

[37] = tested on: Phosphatidylinositol 4,5-bisphosphate 3-kinase catalytic subunit alpha isoform (Homo sapiens), P42336 [H1047L]; settings: Compound concentration 1000.0 nM
Chain of Phosphatidylinositol 4,5-bisphosphate 3-kinase catalytic subunit alpha isoform (Homo sapiens), P42336 [H1047L] (P42336 whole entry H1047L, canonical isoform): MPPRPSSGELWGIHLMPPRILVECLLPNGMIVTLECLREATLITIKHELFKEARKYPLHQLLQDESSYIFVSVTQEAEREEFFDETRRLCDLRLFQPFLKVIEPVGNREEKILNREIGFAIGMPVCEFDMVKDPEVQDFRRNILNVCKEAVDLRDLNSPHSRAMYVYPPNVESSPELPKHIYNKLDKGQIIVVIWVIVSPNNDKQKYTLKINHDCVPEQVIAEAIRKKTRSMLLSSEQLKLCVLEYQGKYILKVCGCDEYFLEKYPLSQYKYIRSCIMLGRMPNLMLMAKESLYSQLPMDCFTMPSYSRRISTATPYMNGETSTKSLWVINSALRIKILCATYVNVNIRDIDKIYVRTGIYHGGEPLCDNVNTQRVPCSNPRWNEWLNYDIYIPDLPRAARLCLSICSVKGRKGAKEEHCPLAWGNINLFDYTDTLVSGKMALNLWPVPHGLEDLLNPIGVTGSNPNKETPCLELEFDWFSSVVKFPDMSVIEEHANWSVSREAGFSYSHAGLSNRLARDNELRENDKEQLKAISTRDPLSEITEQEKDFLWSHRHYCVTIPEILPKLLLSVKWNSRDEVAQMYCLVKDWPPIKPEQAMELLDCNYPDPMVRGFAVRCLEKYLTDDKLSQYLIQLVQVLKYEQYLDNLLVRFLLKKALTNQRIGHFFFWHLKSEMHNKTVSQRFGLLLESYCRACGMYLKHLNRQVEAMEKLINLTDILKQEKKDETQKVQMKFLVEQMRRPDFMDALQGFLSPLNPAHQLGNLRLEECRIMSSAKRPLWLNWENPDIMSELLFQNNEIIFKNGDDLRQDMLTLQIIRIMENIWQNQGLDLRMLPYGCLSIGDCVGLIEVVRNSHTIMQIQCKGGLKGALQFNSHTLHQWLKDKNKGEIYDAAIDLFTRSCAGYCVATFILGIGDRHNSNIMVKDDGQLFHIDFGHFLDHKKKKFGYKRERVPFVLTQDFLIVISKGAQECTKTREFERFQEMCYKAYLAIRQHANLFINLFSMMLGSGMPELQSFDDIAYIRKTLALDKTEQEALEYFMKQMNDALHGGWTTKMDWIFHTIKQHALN

Chain of Dual specificity mitogen-activated protein kinase kinase 4 (Homo sapiens) (P45985 whole entry): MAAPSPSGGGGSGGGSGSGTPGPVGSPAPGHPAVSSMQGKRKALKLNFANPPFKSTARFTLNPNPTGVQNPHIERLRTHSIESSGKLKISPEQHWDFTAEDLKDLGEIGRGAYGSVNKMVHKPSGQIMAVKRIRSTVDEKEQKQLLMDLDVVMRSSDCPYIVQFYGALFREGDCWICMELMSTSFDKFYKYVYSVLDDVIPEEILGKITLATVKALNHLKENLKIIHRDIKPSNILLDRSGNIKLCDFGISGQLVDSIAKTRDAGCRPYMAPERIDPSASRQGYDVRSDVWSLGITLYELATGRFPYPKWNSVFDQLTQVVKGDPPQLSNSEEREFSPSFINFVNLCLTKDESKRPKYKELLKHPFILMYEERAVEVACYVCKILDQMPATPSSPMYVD

O=C(NS(=O)(=O)c1ccc(NCC2CCOCC2)c([N+](=O)[O-])c1)c1ccc(N2CCN(Cc3ccc(C(F)(F)F)cc3-c3ccc(Cl)cc3)CC2)cc1Oc1cnc2[nH]ccc2c1 [A-1210227]
-8.2%: % Inhibition of Control Specific Binding (Mean n=2) [10]
> 25 µM (not active): IC50 [6]
-4.3%: inhibition at 60 min, 10 µM [16]
inactive: residual activity [1] 100% | residual activity [2] 100% | residual activity [3] 88% | residual activity [4] 100% | residual activity [5] 97% | residual activity [8] 100% | residual activity [9] 100% | residual activity [12] 92% | inhibition [13] -0.17% | inhibition [15] -8.19% | residual activity [17] 80% | residual activity [18] 76% | residual activity [19] 100% | residual activity [20] 89% | residual activity [21] 100% | residual activity [22] 60% | residual activity [23] 77% | residual activity [24] 88% | residual activity [25] 93% | residual activity [26] 69% | residual activity [27] 90% | residual activity [28] 91% | residual activity [29] 100% | residual activity [30] 89% | residual activity [31] 73% | residual activity [32] 100% | residual activity [33] 100% | residual activity [34] 96% | residual activity [35] 100% | residual activity [36] 99% | residual activity [37] 85%
-57.7%: % Inhibition of Control Specific Binding (Mean n=2) [14]
2.8%: % Inhibition of Control Specific Binding (Mean n=2) [11]
10%: % Inhibition of Control Specific Binding (Mean n=2) [7]

CO[C@H]1CC[C@H](CNc2ccc(S(=O)(=O)NC(=O)c3ccc(N4CCN(CC5=C(c6ccc(Cl)cc6)CC(C)(C)CC5)CC4)cc3Oc3cnc4[nH]ccc4c3)cc2[N+](=O)[O-])CC1 [A-1211212]
12.9%: % Inhibition of Control Specific Binding (Mean n=2) [11]
0.753 µM (not active): IC50 [6]
-10.9%: % Inhibition of Control Specific Binding (Mean n=2) [10]
inactive: residual activity [1] 96% | residual activity [2] 98% | residual activity [3] 100% | residual activity [4] 74% | residual activity [5] 80% | residual activity [8] 96% | residual activity [9] 100% | residual activity [12] 84% | inhibition [13] -4.69% | inhibition [15] 25.1% | residual activity [17] 72% | residual activity [18] 78% | residual activity [19] 95% | residual activity [20] 89% | residual activity [21] 68% | residual activity [22] 75% | residual activity [23] 66% | residual activity [24] 100% | residual activity [25] 94% | residual activity [26] 92% | residual activity [27] 89% | residual activity [28] 74% | residual activity [29] 100% | residual activity [30] 71% | residual activity [31] 67% | residual activity [32] 81% | residual activity [33] 100% | residual activity [34] 100% | residual activity [35] 100% | residual activity [36] 77% | residual activity [37] 90%
-8%: % Inhibition of Control Specific Binding (Mean n=2) [14]
16.9%: inhibition at 60 min, 10 µM [16]
-2.7%: % Inhibition of Control Specific Binding (Mean n=2) [7]

Reference: ChEMBL document CHEMBL4507310, “Data for DCP probe A-1211212” (2021)
